Consider 98 compounds from ChEMBL document CHEMBL3507680, “University of Dundee, Gates Library screen for HepG2 cell viability”.

The nature of this series: Human HepG2 cell viability assay in 384 well format. Details: dose 125 nL, time 70.5 hour; cytotoxicity at 70.5 h: concentration not given beside the values. It counts as toxicity, cell-based. The following applies: HepG2 cells, read-out: Inhibition.
Turning to `c1csc(CN2Cc3nccn3CC(Cn3cncn3)C2)n1` (stereo not drawn), the cytotoxicity at 70.5 h is -7.09%.
On to `COc1cccc2c1OCC(C(=O)N1CCC(NS(C)(=O)=O)CC1)C2` (stereo not drawn), for which the cytotoxicity at 70.5 h was -7.91%.
On to `Cc1cc(-c2cnc(NC3CC3)nc2-c2ccco2)on1`, for which the cytotoxicity at 70.5 h is -12.6%.
The value for `OCCc1cc(CC2(NCc3ccncc3)COC2)no1` was -4.15%; that for `O=C(NC1CC1)N1C[C@H]2CN(c3ccccc3)C(=O)[C@H]2C1` was 4.91%; that for `Cc1nc(C)n(CC2CN(Cc3nc4ccccc4s3)CCO2)n1` (stereo not drawn) was 18.9%.
As for `CCC[C@H]1CN(CCOC)C[C@@H]1NC(=O)Cn1cc(C)cn1`, the figure is 4.5%; as for `CN(c1ccc(C(C)(C)C)cc1)S(=O)(=O)c1cc(C(=O)O)cs1`, -10.9%.
The value for `O=C(c1cscn1)N(CCCO)S(=O)(=O)c1cccs1` was 0.658%.
As to `CCn1c(Cn2cncn2)nnc1C1CCN(C[C@H]2[C@@H]3CNC[C@@H]32)CC1`, the cytotoxicity at 70.5 h was -20.4%.
Turning to `CCCNc1ncc(CN2CCOC(Cc3cccc(F)c3)C2)cn1` (stereo not drawn), the cytotoxicity at 70.5 h is -10.7%.
As for `CC(NC(=O)C1CN(c2ncnc3c2nnn3C)C1)c1ccccc1` (stereo not drawn), the figure is -16.6%; as for `O=C(C1CC=CC1)N1CC[C@@H]2O[C@@H](COCC3CCOCC3)CC[C@@H]21`, 6.54%; as for `COc1ccc(CN(C)CC(=O)c2ccc3[nH]c(=O)[nH]c3c2)cc1F`, -6.51%.
As for `CN(Cc1ccncn1)C(=O)c1cccc(CCC(C)(C)O)c1`, the figure is -2.23%; as for `CN(CC(=O)NC1CCOCC1)C1CCCN(c2cccnn2)C1` (stereo not drawn), -2.74%.
The value for `Cc1noc(C)c1CN(C)C(=O)C1(N)CCCCC1` was -2.97%.
Turning to `CCn1nnnc1-c1cccc(NC(=O)CCOC(C)C)c1`, the cytotoxicity at 70.5 h was -7.16%.
Consider `CSc1ccc(C(O)CNS(=O)(=O)C2CC2)cc1` (stereo not drawn), for which the cytotoxicity at 70.5 h stood at 2.97%.
The value for `O=c1[nH]nc2c(S(=O)(=O)N3CCCC3)cccn12` was -4.02%.
As for `Cc1cc(CN2CCN(C(=O)NCc3ccoc3)CC2)no1`, the figure is -1.05%; as for `Cc1ccccc1OC1CN(Cc2c(C)nc3ccccn23)C1`, 26.8%.
As for `Cc1ccc(S(=O)(=O)Nc2ccc(-n3nnn(C)c3=O)cc2)cc1`, the figure is 1.6%; as for `CC(=O)NCC(=O)N1Cc2cnc(CC(C)C)nc2C1`, -5.57%.
Consider `O=C(c1ccsc1)N1CCc2onc(COc3ccccn3)c2C1`, for which the cytotoxicity at 70.5 h is -1.49%.
As for `O=C(NCc1ccccc1Cn1cncn1)C1CCC1`, the figure is -4.18%; as for `Cn1cc(C(=O)N2CCCC2CCc2ccccc2)cn1` (stereo not drawn), -9.35%; as for `CNc1ncc(CN(C)C(=O)[C@@]23CNC[C@@H]2CN(C2CCCC2)C3)cn1`, -4.91%.
As for `COc1ccc2[nH]cc(C(=O)N3C[C@@H](O)[C@H](NS(C)(=O)=O)C3)c2c1`, the figure is -6.21%; as for `CC(C)(C)c1n[nH]c(C2CN(CCc3ccncc3)CCO2)n1` (stereo not drawn), 0.424%.
As for `O=C1CSCN1Cc1nc(-c2ccc(N3CCCCC3)cc2)no1`, the figure is -5.66%; as for `CCc1nnc(NC(=O)Cc2c(C)nc(C)[nH]c2=O)s1`, 13.4%.
`COc1ccc(CCNC(=O)C2CCC(Cn3cnnn3)CC2)cc1` (stereo not drawn): the cytotoxicity at 70.5 h is -2.47%.
On to `Cc1cc(C)c(C(=O)N2CCOCC2c2c(C)nn(C)c2C)o1` (stereo not drawn), for which the cytotoxicity at 70.5 h was -12.3%.
`CN(C)S(=O)(=O)N1CCC(c2cccc(Cc3ccccc3Cl)n2)CC1`: the cytotoxicity at 70.5 h is 18.2%.
As for `CCCc1noc(CN2CCCC2c2c(C)nn(C)c2OC)n1` (stereo not drawn), the figure is -7.09%.
As for `COCCN(C)C[C@@H]1CN(C(=O)c2ccc3c(c2)OCO3)C[C@@H]1CO`, the figure is -12.8%.
As for `CN(C)C(=O)CNS(=O)(=O)c1cc(Br)ccc1F`, the figure is 2.64%; as for `CN(Cc1ccccc1CN1CCCC1)c1ncnc2[nH]ccc12`, -4.3%.
Take `COCCO[C@@H]1CCN(C(=O)c2ccc(C)o2)[C@@H]1Cc1cccnc1`: the cytotoxicity at 70.5 h came out at 4.05%.
As for `CN1CCCN(C(=O)c2cnsn2)c2cc(Cl)ccc21`, the figure is -13.8%; as for `COCCCNS(=O)(=O)c1cc(C)sc1C`, -6.05%.
The value for `CS(=O)(=O)NCC(=O)NCc1cccnc1-n1cnc2ccccc21` was 17.2%.
As for `CCN1CC(C(=O)NCc2nc(C3CCCCC3)no2)CC1=O` (stereo not drawn), the figure is 5.22%; as for `COCCN1CCC12CCN(C(=O)c1ccc(C)nc1)C2` (stereo not drawn), -16.4%.
Take `OCc1c(Cl)ncn1-c1ccc(F)cc1`: the cytotoxicity at 70.5 h was determined as 2.53%.
The value for `Cc1cccc(NC(=O)C2CSc3ncc(C)c(=O)n3C2)n1` (stereo not drawn) was -9.15%; that for `Brc1ccc(CN2CCC(NCc3ncc[nH]3)CC2)cc1` was -0.173%; that for `CCn1cc(CN(C)C(=O)c2cccc(CCC(C)(C)O)c2)cn1` was -3.4%.
The value for `CCN1CC[C@@]2(C(=O)N3CCOCC3)CCN(C(=O)NC)CC[C@@H]12` was -10.8%; that for `Cc1cc(C(=O)N2CCCC(c3ccc(C(=O)O)cc3)C2)c(C)o1` (stereo not drawn) was -17.2%; that for `Cn1ccnc1CN1CC[C@@H]2[C@@H](CCC(=O)N2CCc2c[nH]cn2)C1` was 27.2%.
The value for `CC(C)N1CCc2c(c(COc3cccnc3)nn2CC2CC2)C1` was -2.06%; that for `CCc1cn[nH]c1C1CCN(c2cc(C)c3ccc(OC)cc3n2)CC1` was 9.99%; that for `O=C(c1cscn1)N1CCc2ncc(CN3CCCC3)n2CC1` was -8.65%.
Consider `Cc1cnc(CN(C)C2CCN(Cc3nc4ccccc4o3)C2)o1` (stereo not drawn), for which the cytotoxicity at 70.5 h stood at 15.3%.
As for `CC(O)CN(C(=O)NC1CC1)C(C)C` (stereo not drawn), the figure is 29.8%; as for `Cc1nn2c(=O)/c(=C\c3cccs3)sc2nc1=O`, -5.48%.
The value for `Cc1cnc(C(=O)N2CCCC(n3nc(C)nc3C)C2)cn1` (stereo not drawn) was -11.1%.
The value for `CC(C)c1cc2c(O)nc(CSCC(=O)NCc3ccccn3)nc2s1` was -5.56%; that for `Cc1cccnc1[C@H](C)NC(=O)c1cccc(CC2CCNCC2)c1` was 0.55%; that for `O=C(Nc1cccnc1)[C@H]1C[C@H]2OCC[C@H]2N(C(=O)c2ccsc2)C1` was -15.4%.
For the compound `c1nc(N2CCCC2Cn2cncn2)c2ccsc2n1` (stereo not drawn), the cytotoxicity at 70.5 h came to 30.4%.
As to `CNC(=O)N1CC[C@H]2N(C)CC[C@@]2(C(=O)N2CCOCC2)CC1`, the cytotoxicity at 70.5 h is -4.42%.
The value for `NC(=O)CN(CC1CCOC1)C1CC1` (stereo not drawn) was -2.08%; that for `Cn1ccnc1SCCNC(=O)c1cc(S(N)(=O)=O)ccc1F` was -9.32%; that for `O=C(c1ccccc1OCC1CC1)N1CCCC1Cn1cccn1` (stereo not drawn) was 17.7%.
In the case of `Cc1cnc2c(C(=O)N3CCCC(OCc4ccccn4)C3)cnn2c1` (stereo not drawn), the cytotoxicity at 70.5 h is -7.53%.
The value for `c1cc(CO[C@@H]2CC[C@H]3[C@H]2OCCN3CC2CCOCC2)ccn1` was 21.5%; that for `Cc1cccc(C(=O)N2C[C@H](NS(C)(=O)=O)[C@@H]3OCCC[C@@H]32)n1` was -10.2%; that for `Cc1nonc1CN(C)c1nc(-c2ccco2)nc2c1CCN(C)CC2` was -8.33%.
As for `CC(C)N(Cc1nccn1C)C(=O)c1cnc(O)cn1`, the figure is -3.41%; as for `CN1CC[C@]2(CN(C(=O)[C@H]3CCCO3)C[C@H]2c2ccccc2)C1=O`, -2.45%; as for `CN1CC(c2n[nH]c(=O)n2-c2cccc(Cl)c2)CC1=O` (stereo not drawn), -12.8%.
The value for `Cc1cccc(NCCNc2ccc(C#N)cn2)n1` was -5.87%; that for `Cc1ncc(S(=O)(=O)Nc2ccnn2C2CCCCC2)[nH]1` was -1.01%; that for `N#Cc1ccnc(N2CCN(CC(O)c3cc(F)ccc3F)CC2)c1` (stereo not drawn) was -5.77%.
`CCOCC1CN(C(=O)c2cscn2)Cc2cn(C)nc21` (stereo not drawn): the cytotoxicity at 70.5 h is -4.69%.
As for `F[C@@H]1CN(Cc2nccs2)C[C@@H]1OCc1nc2cnccc2[nH]1`, the figure is -3.2%; as for `COc1ccccc1C(C)(C)NCc1ccco1`, -19.1%.
The value for `Cc1ccsc1CN(CCN(C)C)C(=O)C1=NNC(=O)CC1` was -9.85%; that for `O=C(CCc1cc(F)ccc1F)NS(=O)(=O)c1ccc2c(c1)OCCO2` was 0.522%; that for `O=C(CN1CCC(c2ccnn2CCO)CC1)NCC1CC1` was 10.7%.
The value for `CN1CCCCC1Cc1nc2c(cc1C(N)=O)CCC2` (stereo not drawn) was 13.7%.
For the compound `Cc1ccc(NCc2cncc3c2CCN(C(=O)C2CC=CC2)C3)nn1`, the cytotoxicity at 70.5 h was -1.58%.
For the compound `Cc1noc(C)c1CN1CCCC2(CCN(C(=O)N3CCOCC3)C2)C1` (stereo not drawn), the cytotoxicity at 70.5 h was -8.84%.
As for `COCCN1CC[C@@H](OC)[C@@H]1Cc1ccccc1`, the figure is 15.6%; as for `COc1cccc2c1CCN(C(=O)NCCc1nccn1C)C2`, -1.05%; as for `CC(C)c1nc2c(n1C)CCN(CC(=O)Nc1ccncc1)C2`, -7.84%.
Turning to `O=C1COc2ccc(C(=O)NS(=O)(=O)c3ccccc3Cl)cc2N1`, the cytotoxicity at 70.5 h is -14.9%.
As for `Cc1ccc(C(=O)NCC(O)c2cnn(C)c2)c(Br)c1` (stereo not drawn), the figure is -14.7%; as for `CCOC[C@@H]1CCC[C@@]12CN(Cc1nccs1)CCO2`, 0.476%.
As for `CC(O)CNC(=O)Nc1ccc(Br)cc1Br` (stereo not drawn), the figure is -3.83%.
As for `Cc1ccnc(NCCNC(=O)c2ccccc2NCC(=O)O)c1`, the figure is 5.62%.
Regarding `Cc1noc(Cl)c1CCC(=O)N1CCC(Nc2cccnn2)CC1`, the cytotoxicity at 70.5 h is -0.162%.
Regarding `O=C(COc1cccc(F)c1)N1C[C@H](CO)C[C@H](CN2CCCC2)C1`, the cytotoxicity at 70.5 h was determined as 6.4%.
For `Cc1cc(C)cc(S(=O)(=O)NCC2CNCCOC2)c1` (stereo not drawn), the cytotoxicity at 70.5 h is -1.55%.
The value for `CC(C)NC(=O)C1CCC2(CCN(Cc3cnn(C)c3)CC2)C1` (stereo not drawn) was -8.81%.
